Results on five molecules are retold here after US20090017003A1, “THIOSULFONATE ANTI-INFLAMMATORY AGENTS” (SULFIDRIS S.R.L., priority 2006, published 2009).

Series [1] is classed as in vivo. Particulars: male rats, once daily by gavage for three days, diclofenac 10 mg/kg, compound of example 5 14 mg/kg. The protocol:
Thirty male rats (150-200 g) were divided into three groups of 10 animals/group and treated with vehicle, diclofenac (10 mg/kg) and the compound of example 5 (14 mg/kg) for three days once daily by gavage. The vehicle consisted in 1 mL of 0.5% carboxymethylcellulose (CMC). At the fifth day, survival animals were sacrificed, by an overdose of ether, and autopsied to detect any pathological changes, particularly in the gastrointestinal tract. Prostaglandin E2 was evaluated in the liver homogenate by standard enzyme immunoassay procedure as described by Warner T D et al. (J.P.E.T. 2004, 310, 642-7).

Another series concerns gp91^phox. Briefly: gp91phox expression by cultured pulmonary endothelial cells. It is filed as cell-based, porcine. Particulars: 16 hr incubation of pig pulmonary artery cells with TNFα. The text has this: (§1) Effects of the compound prepared in example 4 on superoxide formation, gp91^phox expression by porcine cultured pulmonary endothelial cells and intact cavernosal tissue were studied according to Muzzaffar S. et al. (Br. J. Pharmacol. 2005 September; 146(1):109-17).

The test system of another series is superoxide formation. Kind of series: Superoxide formation by cultured pulmonary endothelial cells. It is filed as cell-based, porcine.
Source text: as §1

The test system of series [2] is PC-3. Briefly: Growth and adhesion to endothelial cells of PC-3 prostate tumour cells in vitro. It is filed as cell-based. The procedure: (§2) The compound described in example 6 has been tested in vitro on 2 prostate tumour cells (DU-145 and PC-3). […] The activity reported in the literature for the parent compound (valproic acid) on the same tumour cells is achieved at much higher concentrations (1 mM). (Engl. T et al. Life Sciences, 2005).

In series [3] the test system is DU-145. Briefly: Growth and adhesion to endothelial cells of DU-145 prostate tumour cells in vitro. It is filed as cell-based. The protocol: as §2
For series [4], the system named is PC-3. Particulars: PC-3 prostate tumour cells; Engl T. et al., Life Sciences 2005; cited from earlier work.
For series [5], the system named is DU-145. The note with it: DU-145 prostate tumour cells; Engl T. et al., Life Sciences 2005; cited from earlier work.

Regarding `O=C(O)Cc1ccccc1Nc1c(Cl)cccc1Cl` [Diclofenac, diclofenac, reference compound], the “% deaths” value in series [1] (10 animals/group) was 40%.

For the molecule `CCCc1nn(C)c2c(=O)[nH]c(-c3cc(S(=O)(=O)N4CCN(CC(=O)OCCSS(C)(=O)=O)CC4)ccc3OCC)nc12` [Example 4, {4-[4-ethoxy-3-(1-methyl-7-oxo-3-propyl-6,7-dihydro-1H-pyrazolo[4,3-d]pyrimidin-5-yl)-benzenesulfonyl]-piperazin-1-yl}-acetic acid 2-methanesulfonylsulfanyl-ethyl ester], the “inhibition of gp91phox expression” value with gp91^phox is given as “inhibited”. The “inhibition of superoxide formation” value in the series with superoxide formation (16 hr incubation of pig pulmonary artery cells with TNFα) and with superoxide formation (16 hr incubation of pig pulmonary artery cells with thromboxane A2 analogue U46619) was “potent inhibitor” in each case. In addition, in the series on superoxide formation (response to inflammatory mediators), the “concentration reducing superoxide formation compared with sildenafil citrate” value was “lower concentrations than sildenafil citrate”.

Consider `CS(=O)(=O)SCCOC(=O)Cc1cccc(Nc2c(Cl)cccc2Cl)c1` [Example 5, [3-(2,6-dichloro-phenylamino)-phenyl]-acetic acid 2-methanesulfonylsulfanyl-ethyl ester], for which, in series [1] (autopsy at fifth day), the “% gastrointestinal ulcer” value turned out to be 10%.

In the case of `CCCC(CCC)C(=O)OCCSS(C)(=O)=O` [Example 6, 2-propyl-pentanoic acid 2-methanesulfonylsulfanyl-ethyl ester], in the series with PC-3 [2], the “concentration range inhibiting adhesion to endothelial cells” value fell in the range of 5 to 30 µM and the “concentration range inhibiting growth” value lay in the range of 5 to 30 µM. Moreover, in the series on DU-145 [3], the “concentration range inhibiting adhesion to endothelial cells” value lay in the range of 5 to 30 µM and the “concentration range inhibiting growth” value is 5 to 30 µM.

`CCCC(CCC)C(=O)O` [valproic acid]: the “concentration at which activity is achieved (literature)” value with PC-3 [4] and in the series with DU-145 [5] was 1 mM in each case.
